This is an account of results in patent US4992448A, “Benzocycloalkylaminopyridinamines and related compounds as topical antiinflammatory agents for the treatment of skin disorders” (Hoechst-Roussel Pharmaceuticals Inc., priority 1989, dated 1991).

Experiment [1] has as its system ear edema induced by topical application of TPA. Nature of the experiment: TPA-Induced Ear Edema (TPAEE). To be noted: for TPAEE (10 μg): 10 μg/ear test compound topical, TPA 10 μg/ear, ear punch weight after five hours. Type of experiment: in vivo, Female Swiss WEbster mice. As for the experimental part:
TPA-Induced Ear Edema (TPAEE) The purpose of this assay was to determine the ability of a topically-applied compound to prevent ear edema induced by topical application of TPA (phorbol 12/myristate acetate). Female Swiss WEbster mice topically received TPA (10μg/ear) on the right ear and vehicle on the left ear. The test compound (10μg/ear) was applied to both ears. After five hours, the animals were sacrificed and an ear punch (4 mm) was taken from each ear. The difference in right and left ear punch weights for each animal was determined to uses activity. […] See Yound, J. M. et. al., J. Invest.

For experiment [2], the system named is Phospholipase A2 -induced paw edema. Nature of the experiment: Phospholipase A2-induced Paw Edema (PIPE). In kind it is in vivo, male Wistar rats. To be noted: for PIPE (0.1 M), difference in edema vs. control: 0.1 M test compound injected with PLA2 (3 units/paw), subplantar, rat left hind paw, two hours post administration. Here is the method: Phospholipase A2 -induced Paw Edema (PIPE) A2 -induced paw edema in male Wistar rats (100-125 g) was measured. PLA2 (3 units/paw) alone or with 0.1 M of the test compound was injected in the subplantar region of the rat left hind paw. Immediately subsequent to the injection and at two hours post administration the paw was immersed in a mercury bath, and paw displacement was measured on a recorder via a transducer. […] See Giessler, A. J. et. al., Agents and Actions, Vol. 10, Trends in Inflammation Research (1981), p. 195.

Experiment [3] deals with porcine pancreatic PLA2 (Sus scrofa, UniProt P00592). Nature of the experiment: In Vitro Phospholipase A2 Assay (PLA2). Type of experiment: biochemical. To be noted: 0.01 M test compound; porcine pancreatic PLA2 (3.2 units), pH 8.0, 37° C. Here is the method: In Vitro Phospholipase A2 Assay (PLA2) The ability of a compound to modulate PLA2 activity (clevage of ^14 -dipalmitoyl phosphotidylcholine at the 2-position to ^14 C-palmitic acid) was quantitated in this assay. […] The reaction was run at 37° C. in a shaking incubator. The reaction was quenched and an internal standard was added in order to determine sample recovery. The samples were loaded onto D18 columns, eluted with ethanol, and the radioactivity was then measured.
porcine pancreatic PLA2, sequence (P00592 23-146): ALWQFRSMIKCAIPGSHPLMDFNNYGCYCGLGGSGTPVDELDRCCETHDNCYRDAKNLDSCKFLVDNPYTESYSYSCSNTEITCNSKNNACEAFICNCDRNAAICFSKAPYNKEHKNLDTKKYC

The inhibition is how much of the control response was suppressed. On to `Nc1cc[n+]([O-])cc1N1CCc2ccccc2C1`, for which the “TPAEE (10 μg)” value in experiment [1] was -45%. The “PIPE (0.1 M), difference in edema vs. control” value in experiment [2] is -42%. Besides, in experiment [3], the inhibition at 10000 µM is 59%.
For `Nc1cnccc1N1CCc2ccccc21` [1-(3-Amino-4-pyridinyl)-2,3-dihydro-1H-indole] the same measures were -74%, -34% and 42%.
Regarding `Nc1ccncc1N1CCc2ccccc21` [1-(4-Amino-3-pyridinyl)-2,3-dihydro-1H-indole], the “TPAEE (10 μg)” value in experiment [1] was -35%. For the same compound, the “PIPE (0.1 M), difference in edema vs. control” value in experiment [2] was -33%. Moreover, the inhibition at 10000 µM in experiment [3] stood at 85%.
In the case of `C[C@]12CCC(=O)C=C1CC[C@@H]1[C@@H]2[C@@H](O)C[C@@]2(C)[C@H]1CC[C@]2(O)C(=O)CO` [hydrocortisone, reference compound], in experiment [1] (standard, TPA-induced mouse ear edema, topical), the “ED50 (TPAEE standard)” value is 47 μg/ear. The “ED50 (PIPE standard)” value in experiment [2] (standard, PLA2-induced rat paw edema) turned out to be 0.46 M.
